# Structures can show the parent of a compound that is named as a salt.
# Legend:
# microRNAs in serum = test: Detection of microRNAs from serum preserved after mixing with acid (3D-Gene DNA microarray, total fluorescence intensity); parameters: species or system human
# Procedure: The serum which had been mixed with the acid in the step (A) was left to stand and preserved at 23° C. for 48 hours.
# A quantity of 27 μL of a 4 M aqueous solution of tris(hydroxymethyl)aminomethane (manufactured by Nacalai Tesque Inc.) was mixed with the serum preserved in the step (B). […]
# From the serum which had been mixed with the base in the step (C), microRNAs were collected using an RNA extraction reagent included in a 3D-Gene (registered trademark) RNA extraction reagent from liquid sample kit (manufactured by Toray Industries, Inc.), in accordance with the protocol defined by the company.
# The microRNAs collected from the serum in the step (D) were fluorescently labeled, using a 3D-Gene (registered trademark) miRNA Labeling kit (manufactured by Toray Industries, Inc.), and in accordance with the protocol defined by the company. Using a 3D-Gene (registered trademark) Human miRNA Oligo chip (manufactured by Toray Industries, Inc.) containing probes having sequences complementary to 2,565 types of microRNAs, as a DNA microarray chip, hybridization was carried out in accordance with the protocol defined by the company. The DNA microarray chip was scanned using a 3D-Gene (registered trademark) scanner (manufactured by Toray Industries, Inc.), to obtain an image. The fluorescence intensities were digitized using a 3D-Gene (registered trademark) Extraction (manufactured by Toray Industries, Inc.), and the total value of the fluorescence intensities of the microRNAs which had been detected exceeding the detection limit was calculated, and the calculated value was defined as the detection level of the microRNAs.
# [1] = pH adjustment of serum (dissolved state in serum and pH of serum); format: physicochemical, human; details: 1 mL serum added to 0.1 g composition (65 mg solid of glycine hydrochloride), 23° C. one minute
# Procedure: From the upper layer of the serum in the tube, 0.1 mL of the serum was collected, and the measurement of the pH was performed using a handy pH meter (manufactured by HORIBA, Ltd.).
# [2] = Example 13: serum of healthy subject Y, pH 3.1 after acid, 23° C. 48 hours, Tris base to pH 7.8
# [3] = Example 14: subject Y serum, pH 3.1 after acid, 23° C. 48 hours, Tris base to pH 6.0
# [4] = Example 15: subject Y serum, pH 3.1 after acid, 23° C. 48 hours, Tris base to pH 7.0
# [5] = Example 16: subject Y serum, pH 3.1 after acid, 23° C. 48 hours, no base mixed (pH 3.1)
# [6] = Comparative Example 3: subject X serum, no acid (pH 7.5), 23° C. 48 hours, Tris base to pH 7.7
compound,measurement,setting,value
"O=C(O)CC(O)(CC(=O)O)C(=O)O [Citric acid, citric acid]",Fluorescence intensities relative to before preservation,microRNAs in serum; [2],104.5%
same,Total value of fluorescence intensities,microRNAs in serum; [2],1.10 × 10^6
same,Fluorescence intensities relative to before preservation,"microRNAs in serum; Example 13: serum of healthy subject Y, pH 3.1 after acid, 23° C. 48 hours, Tris base to pH 7.8, listed as citric acid",≥ 100%
same,Fluorescence intensities relative to before preservation,microRNAs in serum; [3],85.0%
same,Total value of fluorescence intensities,microRNAs in serum; [3],8.95 × 10^5
same,Fluorescence intensities relative to before preservation,"microRNAs in serum; Example 14: subject Y serum, pH 3.1 after acid, 23° C. 48 hours, Tris base to pH 6.0, listed as citric acid",≥ 70%
same,Fluorescence intensities relative to before preservation,microRNAs in serum; [4],85.5%
same,Total value of fluorescence intensities,microRNAs in serum; [4],9.00 × 10^5
same,Fluorescence intensities relative to before preservation,"microRNAs in serum; Example 15: subject Y serum, pH 3.1 after acid, 23° C. 48 hours, Tris base to pH 7.0, listed as citric acid",≥ 70%
same,Fluorescence intensities relative to before preservation,microRNAs in serum; [5],75.2%
same,Total value of fluorescence intensities,microRNAs in serum; [5],7.92 × 10^5
same,Fluorescence intensities relative to before preservation,"microRNAs in serum; Example 16: subject Y serum, pH 3.1 after acid, 23° C. 48 hours, no base mixed (pH 3.1), listed as citric acid",≥ 70%
"NCC(=O)O [Glycine hydrochloride, glycine hydrochloride]",pH of serum,"[1]; upper layer, pH 7.7 before the addition",4.5
same,dissolved state in serum,[1]; visual observation,did not quickly dissolve in the serum
same,Total value of fluorescence intensities,"microRNAs in serum; Example 1: serum of healthy subject X, pH 2.8 after mixing acid, preserved 23° C. 48 hours, Tris base to pH 7.5",9.81 × 10^5
same,Total value of fluorescence intensities,"microRNAs in serum; Example 2: subject X serum, pH 2.8 after acid, 23° C. 48 hours, Tris base to pH 7.7",9.51 × 10^5
same,Total value of fluorescence intensities,"microRNAs in serum; Example 3: subject X serum, pH 2.8 after acid, 23° C. 48 hours, Tris base to pH 8.0",1.10 × 10^6
same,Total value of fluorescence intensities,"microRNAs in serum; Example 4: subject X serum, pH 2.8 after acid, 23° C. 48 hours, Tris base to pH 8.5",8.99 × 10^5
same,Total value of fluorescence intensities,"microRNAs in serum; Example 5: subject X serum, pH 2.8 after acid, 23° C. 48 hours, Tris base to pH 9.0",7.89 × 10^5
same,Total value of fluorescence intensities,"microRNAs in serum; Example 6: subject X serum, pH 2.8 after acid, 23° C. 48 hours, Tris base to pH 6.0",7.19 × 10^5
same,Total value of fluorescence intensities,"microRNAs in serum; Example 7: subject X serum, pH 2.8 after acid, 23° C. 48 hours, Tris base to pH 7.0",7.23 × 10^5
same,Total value of fluorescence intensities,"microRNAs in serum; Example 8: subject X serum, pH 2.8 after acid, 23° C. 48 hours, no base mixed (pH 2.8)",6.25 × 10^5
same,Total value of fluorescence intensities,"microRNAs in serum; Example 9: subject X serum, pH 4.0 after acid, 23° C. 48 hours, Tris base to pH 7.7",1.05 × 10^6
same,Total value of fluorescence intensities,"microRNAs in serum; Example 10: subject X serum, pH 2.8 after acid, 23° C. 2 hours, Tris base to pH 7.7",8.70 × 10^5
same,Total value of fluorescence intensities,"microRNAs in serum; Example 11: subject X serum, pH 2.8 after acid, 23° C. 6 hours, Tris base to pH 7.7",9.07 × 10^5
same,Total value of fluorescence intensities,"microRNAs in serum; Example 12: subject X serum, pH 2.8 after acid, 23° C. 96 hours, Tris base to pH 7.7",1.00 × 10^6
tris(hydroxymethyl)aminomethane,Fluorescence intensities relative to before preservation,microRNAs in serum; [6],16.3%
same,Total value of fluorescence intensities,microRNAs in serum; [6],1.39 × 10^5
